Test results from PMC3005334 (Cell, 2010).

Target: T1, Hmg1 (Saccharomyces cerevisiae, UniProt P12683)
T1 sequence (P12683 1-1054): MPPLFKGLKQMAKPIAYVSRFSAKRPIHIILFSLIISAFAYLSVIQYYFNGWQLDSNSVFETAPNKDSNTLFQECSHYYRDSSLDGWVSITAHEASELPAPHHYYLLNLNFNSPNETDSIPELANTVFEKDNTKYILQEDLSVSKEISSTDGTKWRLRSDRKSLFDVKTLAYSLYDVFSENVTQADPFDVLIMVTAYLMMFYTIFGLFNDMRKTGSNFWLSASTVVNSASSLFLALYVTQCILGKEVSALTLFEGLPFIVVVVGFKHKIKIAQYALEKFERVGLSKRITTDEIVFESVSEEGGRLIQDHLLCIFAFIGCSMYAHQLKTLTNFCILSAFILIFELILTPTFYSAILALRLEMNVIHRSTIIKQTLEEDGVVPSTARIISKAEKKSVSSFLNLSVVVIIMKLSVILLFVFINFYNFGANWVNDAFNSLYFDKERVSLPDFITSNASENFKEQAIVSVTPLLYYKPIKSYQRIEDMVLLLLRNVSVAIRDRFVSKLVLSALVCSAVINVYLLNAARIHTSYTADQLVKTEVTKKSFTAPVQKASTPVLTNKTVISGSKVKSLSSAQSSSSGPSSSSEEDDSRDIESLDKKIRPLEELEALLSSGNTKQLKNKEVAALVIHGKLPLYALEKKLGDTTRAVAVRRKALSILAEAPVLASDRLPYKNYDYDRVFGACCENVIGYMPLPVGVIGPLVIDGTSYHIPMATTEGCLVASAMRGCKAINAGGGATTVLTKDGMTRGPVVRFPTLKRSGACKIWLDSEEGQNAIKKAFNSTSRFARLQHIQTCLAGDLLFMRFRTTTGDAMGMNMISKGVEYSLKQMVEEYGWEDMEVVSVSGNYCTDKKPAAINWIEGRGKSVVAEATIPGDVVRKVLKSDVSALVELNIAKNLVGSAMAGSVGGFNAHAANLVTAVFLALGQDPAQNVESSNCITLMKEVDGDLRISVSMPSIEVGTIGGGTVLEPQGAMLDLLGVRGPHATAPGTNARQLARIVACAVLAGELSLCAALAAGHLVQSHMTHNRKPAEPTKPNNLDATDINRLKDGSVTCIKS
Type: binding
Details: probably low level of protein in the preparation

SMILES: CC(C)[C@@H](C)/C=C/[C@@H](C)[C@H]1CC[C@H]2C3=CC=C4C[C@@H](O)CC[C@]4(C)[C@H]3CC[C@]12C [ergosterol]
- detection with Hmg1: not detected
